Assay results published in US8513181B2, “Substances and compositions for enhancing DNA repair and methods of use” (Cornell University, priority 2008, dated 2013).

Key:
Cul4a−/− MEFs = assay: BrdU incorporation and cell viability of Cul4a−/− MEFs after Cul4b silencing; assay type: cell-based, mouse; conditions: silencing of Cul4b in Cul4a−/− MEFs
From the text: FIG. 3A is a bar graph depicting the percentage of control (f/f-4a) and Cul4a knockout (ko-4a) MEFs infected with a lentivirus encoding GFP and either short hairpin (sh)-4b or scrambled (scm)-4b, at the indicated time point, as determined by FACS. FIG. 3B is a bar graph depicting BrdU incorporation into the MEFs described in FIG. 3A, as determined by counting BrdU^+ cells in microscopic fields.
(§1) Short hairpin (sh) RNAs for gene targeting were as follows: murine sh-Cul4b was 5′-[…]-3′ (SEQ ID NO: 9); murine sh-Pcid2-1 was 5′-[…]-3′ (SEQ ID NO: 10); murine sh-Pcid2-2 was 5′-[…]-3′ (SEQ ID NO: 11); murine sh-p21 was 5′-[…]-3′ (SEQ ID NO: 12); scrambled sh-Cul4b was 5′-[…]-3′ (SEQ ID NO: 13); and human sh-Cul4a was 5′-GAAGCTGGTCATCAAGAAC-3′ (SEQ ID NO: 14). shRNAs were subcloned into the FUGW lentiviral vector and expressed under the U6 promoter (Sui and Shi, Methods Mol. Biol., 309: 205-218 (2005)). Recombinant lentiviruses were generated for infection of MEFs or HCT116 cells.

mouse CUL4B = assay: Western blotting of MEF extracts after lentiviral shRNA infection (knockdown efficiency); assay type: cell-based; conditions: early passage (P3) primary MEFs, harvested 48 hours post-infection
From the text: as §1
(§2) MEFs were isolated from embryonic day (E) 13.5 wild-type or Cul4a knockout embryos. shRNAs for murine Cul4b and Pcid2 as well as scrambled controls were subcloned into the FUGW lentiviral vector and expressed under the U6 promoter as described in Example 1. Recombinant shCul4b and shPcid2 lentiviruses were generated for infection of primary Cu/4a^f/f and Cul4a^−/− MEF cells. shRNA-containing FUGW lentivirus were added onto Cu/4a^f/f and Cul4a^−/− MEFs every 12 hours for 36 hours. The cells were harvested 48 hours post-infection, and Western blotting was performed on MEF extracts using antibodies against CUL4A (C-19, Santa Cruz Biotechnology), CUL-4B, DDB2 (Cell Signaling Technology, Danvers, Mass.), p21 (Santa Cruz Biotechnology), XPC, histone H3, and β-actin (Sigma, St. Louis, Mo.).

[1] = tested on: primary Cul4a f/f and Cul4a−/− MEF cells; assay: Western blotting of DDB2, p21 and XPC steady-state protein levels in MEFs after lentiviral shRNA; assay type: cell-based, mouse; conditions: Western blot
Protocol: as §2

[2] = tested on: UV-induced CPDs and 6-4PPs in primary MEFs; assay: GGR ELISA assay of CPD and 6-4PP removal in MEFs; assay type: cell-based, mouse
XPC in HCT116 cells = assay: XPC chromatin binding and ubiquitination after UV irradiation (immunoblot of chromatin-bound extracts); assay type: cell-based, human; conditions: HCT116, lentiviral shRNA 48 hours
Protocol: XPC ubiquitination was determined in HCT116 cells following UV irradiation. HCT116 cells were infected with lentiviral shCul4a or control FUGW for 48 hours, UV irradiated at 10 J/m^2 and harvested at 0 hr, 0.5 hr, 1 hr, and 2 hr post-UV. The chromatin-bound extracts were prepared and subjected to immunoblotting.

HCT116 cells = assay: CPD repair (NER activity) in UV-irradiated HCT116 cells infected with adenovirus; assay type: cell-based, human; conditions: HCT116, 10 J/m^2 UV-C, 0-24 hr
Protocol: The GGR ELISA assay of CPD and 6-4PP removal was performed as previously described (Chen et al., 2006) in primary Cul4a^−/− (ko-4-a scm-4b), Cu/4b^k/d (f/f-4a sh-4b), and control Cu/4a^f/f (f/f-4a scm-4-b) MEFs (FIG. 7B, ko, knockout; k/d, knockdown; scm, scramble). Briefly, exponentially growing MEF cells were irradiated with 10 J/m^2 UV-C (254 nm) and either harvested immediately (0 hr) or allowed to repair for the duration indicated in FIG. 7B. Genomic DNA was isolated and quantified via liquid scintillation and fluorometric measurements of Hoechst-stained DNA. Denatured genomic DNA was fixed to each well of protamine sulfate-coated 96-well plates and sequentially incubated with monoclonal antibody specific for 6-4PPs (64M-2, 1:5000) or CPDs (1:5000), biotin-F(ab′)2 fragment of anti-mouse IgG (H+L) (1:2000, Zymed) and peroxidase-Streptavidin (1:10,000, Zymed) for 30 min at 37° C. The wells were washed with PBS-Tween and 0.1 M citrate-phosphate buffer and incubated with the substrate solution (0.1 M citrate-phosphate buffer, 0.1 mg/mL tetramethylbenzidine [TMB], 0.03% H2O2) at room temperature for 30 min. […] A450 was determined using a plate reader (Molecular Devices).
HCT116 cells were infected with a control adenovirus or an adenovirus comprising a gene encoding a DN-CUL4 (SEQ ID NO: 18). […] The rate of NER activity was then calculated as the rate of CPD repair as a function of time.

## shCul4b: murine short hairpin RNA targeting Cul4b, 5′-GTAGTAACGAGAGAGAAGACT-3′ (SEQ ID NO: 9), in FUGW lentiviral vector (listed as Mus musculus)
Cul4a−/− MEFs
  BrdU incorporation: dramatic reduction
  cell viability: loss of cell viability
Mouse CUL4B
  reduction of mouse CUL4B protein: over 93%
[1]; Cul4b knockdown
  effect on XPC accumulation: marginal effect
[1]; Cul4b silencing by RNAi
  effect on p21 protein accumulation: little effect
[1]; lentiviral shRNA
  effect on DDB2 levels: only a marginal effect
[2]; Cul4b knockdown in Cul4a f/f MEFs, 10 J/m^2 UV-C
  effect on GGR efficiency (CPD and 6-4PP removal): no discernable effect

## shCul4a: human short hairpin RNA targeting Cul4a, 5′-GAAGCTGGTCATCAAGAAC-3′ (SEQ ID NO: 14), in FUGW lentiviral vector (listed as Homo sapiens)
XPC in HCT116 cells; UV 10 J/m^2
  association of XPC with chromatin: increased
XPC in HCT116 cells; UV 10 J/m^2, 0-2 hr post-UV
  XPC ubiquitination on chromatin post-UV: dramatic inhibition

## sh-p21: murine short hairpin RNA targeting p21, 5′-GAGAACGGTGGAACTTTGACTT-3′ (SEQ ID NO: 12), lentiviral (expressed or natural sequence; listed as Mus musculus)
[2]; p21 knockdown (or p21 deletion) in Cul4a−/− MEFs, 10 J/m^2 UV, 24-hour repair assay
  reduction of NER activity in CPD removal compared to Cul4a−/− MEFs: 8-11%

B1: DN-CUL4: dominant negative CUL4 fragment (SEQ ID NO: 18) expressed from an adenovirus (protein, listed as Homo sapiens)
chain: MADEAPRKGSFSALVGRTNGLTKPAALAAAPAKPGGAGGSKKLVIKNFRDRPRLPDNYTQDTWRKLHEAVRAVQSSTSIRYNLEELYQAVENLCSHKVSPMLYKQLRQACEDHVQAQILPFREDSLDSVLFLKKINTCWQDHCRQMIMIRSIFLFLDRTYVLQNSTLPSIWDMGLELFRTHIISDKMVQSKTIDGILLLIERERSGEAVDRSLLRSLLGMLSDLQVYKDSFELKFLEETNCLYAAEGQRLMQEREVPEYLNHVSKRLEEEGDRVITYLDHSTQKPLIACVEKQLL
modifications: DN-CUL4A (M1-L295)
HCT116 cells
  CPD repair compared to control adenovirus cells: occurred earlier and was more complete
